From US20260337177A1, “TEAD CORE INHIBITORS FOR CANCER THERAPEUTICS” (University of Florida Research Foundation, Incorporated, priority 2023, published 2026)

How the values were obtained:
TAZ-TEAD = test: Co-immunoprecipitation of endogenous TAZ and TEAD in NCI-H226 cells; type: cell-based; conditions: 1 μM, 24 hours
Method: To assess if compound 22 inhibits the interaction between YAP/TAZ and TEAD proteins within the cell, compound 22 was administered to NF2-deficient NCI-H226 cells for 24 hours. Subsequently, the endogenous TEAD protein was isolated through immunoprecipitation using a pan-TEAD antibody and examined the immunocomplexes for the presence of YAP/TAZ proteins using anti-YAP/TAZ antibodies (as depicted in FIG. 18).
[…] protein lysate extracted using lysis buffer were incubated with 5 μL pan-TEAD antibody (CST #13295, 33 g/ml) at 4 ° C overnight with rotation, and then incubated with 15 μL Protein G magnetic beads (Fisher #88847) at R.T. for 1 hour with rotation. After binding, beads were washed three times with lysis buffer and one time with ddH2O. IP samples were eluted using 1× gel loading buffer supplied with 20 mM DTT and boiled at 96 ° C for 10 min. […] protein lysate were used for input, and 3% IP flow-thru were used for binding efficiency control. *0 indicated DMSO control. For the detection process, primary antibodies used were: YAP/TAZ rabbit monoclonal antibody (mAb) at a dilution of 1:2000, CST #8418S; Pan-TEAD rabbit mAb at 1:2000, CST #13295S; and 3-actin mouse mAb at 1:8000, Sigma #A5316. Secondary antibodies applied in 1× TBST were: Rabbit IgG-HRP at 1:10000 and Mouse IgG-HRP also at 1:10000.

TEAD2-YBD = TEAD2-YBD (Homo sapiens, UniProt Q15562); test: Intact protein mass spectrometry, covalent modification of TEAD2-YBD; type: binding
Chain of TEAD2-YBD (Q15562 217-447): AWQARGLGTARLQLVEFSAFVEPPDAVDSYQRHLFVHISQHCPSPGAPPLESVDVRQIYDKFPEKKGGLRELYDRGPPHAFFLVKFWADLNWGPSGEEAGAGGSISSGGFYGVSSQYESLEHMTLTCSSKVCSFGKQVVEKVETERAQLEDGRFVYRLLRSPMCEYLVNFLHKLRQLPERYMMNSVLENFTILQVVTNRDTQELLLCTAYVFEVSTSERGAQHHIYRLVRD
Text: To substantiate the covalent interaction between Compound 22 and TEAD2-YBD, intact mass spectrometry was employed to monitor the protein's mass change upon binding with the compound.
Human TEAD2-YBD (217-447) (TEAD2_HUMAN, UniProtKB Q15562) was expressed and purified as previously described.^79 To eliminate endogenous palmitoylation, Cys380Ser mutant (TEAD2-C380S) was generated and purified using the same protocol. [00392]hTEAD2 was expressed, purified, and deacylated as reported.^52 Briefly, the yap-binding domain (YBD) of […] was cloned in pET28a vector with the N terminal 6x His tag. The recombinant protein was induced at 16 ° C using 0.2 mM isopropyl bD-1-thiogalactopyranoside (IPTG) for 10 h for overexpression in Escherichia coli strain BL2 (DE3) CodonPlus competent cells (Invitrogen). Then cells were harvested, followed by lysis and the supernatant was loaded onto the HisTrap FF column (GE Healthcare). The hTEAD4-YBD was eluted with elution buffer (50 mM Hepes 8.0, 300 mM NaCl, 10% Glycerol, 1 mM TCEP, 125 mM imidazole). To eliminate the endogenous fatty acid, the protein was incubated with 0.2 mM hydroxylamine for 2 h and further purified through gel filtration chromatography in the final buffer (25 mM Hepes pH 8.0, 100 mM NaCl, 1 mM TCEP, and 5% glycerol). Collected fractions were concentrated to 5 mg/mL and flash frozen for further use. […]

NCI-H226 cells = test: NCI-H226 cell growth inhibition (CCK-8, 3 days); type: cell-based; conditions: Homo sapiens, NCI-H226, 72 h, NF2-deficient mesothelioma, read-out: Antiproliferative IC50, NCI-H226
Method: The inhibitory effects of compound 22 were assessed against YAP TEAD related NF2-deficient mesothelioma cell NCI-H226 and triple negative breast cancer cell Hs578T. The growth inhibition ratio was measured using a CCK-8 assay after 3 days of treatments.

HepG2 cells = test: Apoptosis by Annexin V/PI flow cytometry, HepG2; type: cell-based, human; conditions: 10 μM; 48 h
Method: In order to gain deeper insights into the underlying anticancer mechanism of compound 22, experiments were performed to validate whether the induction of G1 phase cells by compound 22 was linked to apoptosis. To achieve this, the cells treated with compound 22 were subjected to PI and FITC-annexin V staining to detect apoptotic cells. […] The proportions of total apoptosis including the early stage apoptosis and the later stage of apoptosis were 66.8%, and 83.5%, respectively, at concentrations of 5 and 10 μM. This trend was similarly observed in the case of HepG2 cells. […] The impact of compound 22 on inducing cell apoptosis was less pronounced in HepG2 cells compared to Huh7 cells, aligning with the outcomes of the cell cycle analysis, providing further coherence to the observed effects of compound 22 on these cell lines.
Apoptosis was detected using an Annexin V-FITC apoptosis detection kit (Thermo Fisher Scientific) following the manufacturer’ instructions. Briefly, about 50000 cells were suspended in 500 μl of binding buffer. The cells were incubated with 5 μl FITC-conjugated Annexin V for 15 minutes and incubated with 5 μl propidium Iodide staining solution for 15 minutes in darkness at room temperature. Cell apoptosis was then analyzed by flow cytometry using a FACSCalibur flow cytometer (Becton Dickinson, San Jose, CA).

Huh7 cells = test: MTT assay, Huh7 viability; type: cell-based, human; conditions: FIG. 9

SMILES: O=C(CCl)c1c[nH]c2cc(Cl)c(OCc3cccc(C(F)(F)F)c3)cc12 [Compound 22, 2-chloro-1-(6-chloro-5-((3-(trifluoromethyl)benzyl)oxy)-1H-indol-3-yl)ethan-1-one]
- Co-IP of TAZ with pan-TEAD antibody (TAZ-TEAD): not affecting TAZ
- Labeling of TEAD2-YBD (TEAD2-YBD; 15 hours at room temperature): completely labeled with a single molecule
- Intact mass shift of TEAD2-YBD (TEAD2-YBD; excess compound, covalent complex, room temperature): 365.5581 Da
- IC50 (NCI-H226 cells): 400 nM
- Maximum apoptotic rate (early+late apoptotic), HepG2 (HepG2 cells): 69.0%
- Huh7 viability, MTT assay (Huh7 cells): inhibits
